Assay results published in US4668621A, “Detecting blood clotting factors with immobilized fibrinogen and labeled fibrinogen” (Wake Forest University, priority 1985, dated 1987).
Blank lines part the entries; values can stand above or below the compound they belong to.

How the values were obtained:
fibrinogen = assay: Thrombin assay: peroxidase-fibrinogen bound to fibrinogen-coated microtiter plate; type: biochemical, human; conditions: for [Thrombin] for O.D. = 1: unit not printed here (preceding table: NIH units/ml)
Experimental: This was prepared by the method of Nakane and Kawaoi (J. Histochem. Cytochem (1974) 22:1084) using 40 mg of horseradish peroxidase and 300 mg of human fibrinogen. The molar ratio of peroxidase to fibrinogen in the final product was 0.39. This was diluted with unlabeled fibrinogen to a concentration of 0.72 mg/ml of fibrinogen with a molar ratio of 0.12 moles of peroxidase per mole of fibrinogen, stored in 50% glycerol at -20° C.
(§1) In the first assay, microtiter plates were coated with 150 μl per well of 50 μg/ml of fibrinogen in 10 mM Tris-acetate buffered saline, pH 7.6 (TABS) containing 10 mM EDTA overnight at 4° C. The solution was removed from the plate, and 100 μl of a 10 μg/ml solution of peroxidase-fibrinogen in 3.8 mg/ml bovine serum albumin (BSA) in TABS containing 10 mM calcium chloride was added to the well. 50 μl of thrombin diluted from 0.1 to 0.00078 NIH units/ml (30-0.25 ng/ml) was added to each well for various times from 0-160 min, after which the solution was washed from the plate. Peroxidase assay was performed using ortho-phenylenediamine as the indicator dye, with 11 min of incubation. Optical density was measured at 490 nm using a microtiter plate reader, with the following results:
Not only the endpoint (O.D.>2), but also the partial reaction ([…])can be used as a measure of thrombin activity. The penultimate value prior to the endpoint, or an approximate extrapolation to the concentration of thrombin yielding an O.D. value of 1 can be used to standardize this assay. For the above experiment, this value is reached at thrombin concentrations of: […]

thrombin = target: T1, thrombin (Homo sapiens, UniProt P00734); assay: Inhibition of thrombin in the solid-phase thrombin assay; type: biochemical; conditions: 80 min assay
T1 construct: additional factors necessary for cleavage of prothrombin to thrombin
Experimental: as §1, with “incubation.” for “incubation. Optical density was measured at 490 nm using a microtiter plate reader, with the following results:”
In the next assay, benzamidine and D-phenylalanyl-L-prolyl-L-arginine chloromethyl ketone (PPACK) were added to thrombin at the start of the assay. […] The percent inhibition can be calculated from the increased thrombin concentration required to obtain equivalent activity, as
% inhibition=100 * (1-To/Ti)
where To is the thrombin concentration yielding an O.D.=1 in the absence of inhibitor, and Ti is the thrombin concentration yielding an O.D.=1 in the presence of a given inhibitor concentration.

[Thrombin] for O.D. = 1 (fibrinogen; incubation time 10 min): > 0.03
[Thrombin] for O.D. = 1 (fibrinogen; incubation time 20 min): 0.02
[Thrombin] for O.D. = 1 (fibrinogen; incubation time 40 min): 0.005
[Thrombin] for O.D. = 1 (fibrinogen; incubation time 80 min): 0.002
[Thrombin] for O.D. = 1 (fibrinogen; incubation time 160 min): 0.0008
Optical density at 490 nm (fibrinogen; thrombin .00026 NIH units/ml, incubation 0 min): 0.20
Optical density at 490 nm (fibrinogen; thrombin .00026 NIH units/ml, incubation 10 min): 0.24
Optical density at 490 nm (fibrinogen; thrombin .00026 NIH units/ml, incubation 20 min): 0.19
Optical density at 490 nm (fibrinogen; thrombin .00026 NIH units/ml, incubation 40 min): 0.25
Optical density at 490 nm (fibrinogen; thrombin .00026 NIH units/ml, incubation 80 min): 0.32
Optical density at 490 nm (fibrinogen; thrombin .00026 NIH units/ml, incubation 160 min): 0.24
Optical density at 490 nm (fibrinogen; thrombin .0005 NIH units/ml, incubation 0 min): 0.21
Optical density at 490 nm (fibrinogen; thrombin .0005 NIH units/ml, incubation 10 min): 0.21
Optical density at 490 nm (fibrinogen; thrombin .0005 NIH units/ml, incubation 20 min): 0.16
Optical density at 490 nm (fibrinogen; thrombin .0005 NIH units/ml, incubation 40 min): 0.14
Optical density at 490 nm (fibrinogen; thrombin .0005 NIH units/ml, incubation 80 min): 0.18
Optical density at 490 nm (fibrinogen; thrombin .0005 NIH units/ml, incubation 160 min): 0.60
Optical density at 490 nm (fibrinogen; thrombin .0010 NIH units/ml, incubation 0 min): 0.22
Optical density at 490 nm (fibrinogen; thrombin .0010 NIH units/ml, incubation 10 min): 0.15
Optical density at 490 nm (fibrinogen; thrombin .0010 NIH units/ml, incubation 20 min): 0.18
Optical density at 490 nm (fibrinogen; thrombin .0010 NIH units/ml, incubation 40 min): 0.23
Optical density at 490 nm (fibrinogen; thrombin .0010 NIH units/ml, incubation 80 min): 0.37
Optical density at 490 nm (fibrinogen; thrombin .0010 NIH units/ml, incubation 160 min): 1.55
Optical density at 490 nm (fibrinogen; thrombin .0021 NIH units/ml, incubation 0 min): 0.25
Optical density at 490 nm (fibrinogen; thrombin .0021 NIH units/ml, incubation 10 min): 0.18
Optical density at 490 nm (fibrinogen; thrombin .0021 NIH units/ml, incubation 20 min): 0.18
Optical density at 490 nm (fibrinogen; thrombin .0021 NIH units/ml, incubation 40 min): 0.18
Optical density at 490 nm (fibrinogen; thrombin .0021 NIH units/ml, incubation 80 min): 1.02
Optical density at 490 nm (fibrinogen; thrombin .0021 NIH units/ml, incubation 160 min): > 2
Optical density at 490 nm (fibrinogen; thrombin .0042 NIH units/ml, incubation 0 min): 0.23
Optical density at 490 nm (fibrinogen; thrombin .0042 NIH units/ml, incubation 10 min): 0.22
Optical density at 490 nm (fibrinogen; thrombin .0042 NIH units/ml, incubation 20 min): 0.26
Optical density at 490 nm (fibrinogen; thrombin .0042 NIH units/ml, incubation 40 min): 0.87
Optical density at 490 nm (fibrinogen; thrombin .0042 NIH units/ml, incubation 80 min): > 2
Optical density at 490 nm (fibrinogen; thrombin .0042 NIH units/ml, incubation 160 min): > 2
Optical density at 490 nm (fibrinogen; thrombin .0083 NIH units/ml, incubation 0 min): 0.30
Optical density at 490 nm (fibrinogen; thrombin .0083 NIH units/ml, incubation 10 min): 0.42
Optical density at 490 nm (fibrinogen; thrombin .0083 NIH units/ml, incubation 20 min): 0.40
Optical density at 490 nm (fibrinogen; thrombin .0083 NIH units/ml, incubation 40 min): 1.67
Optical density at 490 nm (fibrinogen; thrombin .0083 NIH units/ml, incubation 80 min): > 2
Optical density at 490 nm (fibrinogen; thrombin .0083 NIH units/ml, incubation 160 min): > 2
Optical density at 490 nm (fibrinogen; thrombin .017 NIH units/ml, incubation 0 min): 0.31
Optical density at 490 nm (fibrinogen; thrombin .017 NIH units/ml, incubation 10 min): 0.30
Optical density at 490 nm (fibrinogen; thrombin .017 NIH units/ml, incubation 20 min): 0.91
Optical density at 490 nm (fibrinogen; thrombin .017 NIH units/ml, incubation 40 min): > 2
Optical density at 490 nm (fibrinogen; thrombin .017 NIH units/ml, incubation 80 min): > 2
Optical density at 490 nm (fibrinogen; thrombin .017 NIH units/ml, incubation 160 min): > 2
Optical density at 490 nm (fibrinogen; thrombin .033 NIH units/ml, incubation 0 min): 0.41
Optical density at 490 nm (fibrinogen; thrombin .033 NIH units/ml, incubation 10 min): 0.52
Optical density at 490 nm (fibrinogen; thrombin .033 NIH units/ml, incubation 20 min): 1.24
Optical density at 490 nm (fibrinogen; thrombin .033 NIH units/ml, incubation 40 min): > 2
Optical density at 490 nm (fibrinogen; thrombin .033 NIH units/ml, incubation 80 min): > 2
Optical density at 490 nm (fibrinogen; thrombin .033 NIH units/ml, incubation 160 min): > 2
Compound: Thrombin

Compound: N=C(N)NCCC[C@H](NC(=O)[C@@H]1CCCN1C(=O)[C@H](N)Cc1ccccc1)C(=O)CCl [PPACK, D-phenylalanyl-L-prolyl-L-arginine chloromethyl ketone]
% Inhibition (thrombin; [PPACK] .005 nM): 11%
% Inhibition (thrombin; [PPACK] .01 nM): 19%
% Inhibition (thrombin; [PPACK] .02 nM): 43%
% Inhibition (thrombin; [PPACK] .05 nM): 62%
% Inhibition (thrombin; [PPACK] .1 nM): 79%
% Inhibition (thrombin; [PPACK] .2 nM): 83%
% Inhibition (thrombin; [PPACK] .5 nM): 95%

Compound: N=C(N)c1ccccc1 [Benzamidine, benzamidine]
% Inhibition (thrombin; [Benzamidine] 0.5 mM): 8%
% Inhibition (thrombin; [Benzamidine] 1 mM): 41%
% Inhibition (thrombin; [Benzamidine] 2 mM): 55%
% Inhibition (thrombin; [Benzamidine] 5 mM): 75%
% Inhibition (thrombin; [Benzamidine] 10 mM): 84%
% Inhibition (thrombin; [Benzamidine] 20 mM): 97%
